In US20250367231A1, “MULTIFUNCTIONAL BIOADHESIVE DESIGNED WITH CHEMICAL FUNCTIONALITY INDUCED SUTURED BIOLOGICAL BUILDING BLOCKS” (The Regents of the University of California, priority 2022, published 2025):

Conditions: ambient conditions; for time to change in color (self-oxidation of catechol moieties): aqueous solution
Source text: Dopamine (Dopa), a naturally derived neurotransmitter molecule^[4], also resembles with the key moiety in mussel foot proteins (catechol)^[11] and has been intensely utilized to develop adhesive biomaterials with diverse clinical importance^[12]. In view of the biological relevance of multifunctional catecholic moieties, herein, Dopa skeleton was chemically modified with a nitro-group to modulate the electronic properties of the aromatic ring^[13] (FIG. 1a). To use the nitro incorporated dopamine (nDopa) moiety for designing functional biomaterials, it was further covalently conjugated with a methacrylate group through an amide linkage (FIG. 1a).

time without self-oxidation | time to change in color (self-oxidation of catechol moieties) | Compound
> 7 days |  | C=C(C)C(=O)NCCc1cc(O)c(O)cc1[N+](=O)[O-] [nMAD, methacrylated nitro-dopamine]
 | 1 h | NCCc1ccc(O)c(O)c1 [Dopa, dopamine]
 | 24 h | C=C(C)C(=O)NCCc1ccc(O)c(O)c1 [MAD, methacrylated dopamine]
